Active and inactive are the calls of the source. The calls are words filed in the database; no cut-off is given here. Where only a bound is given, the exact number is not on record here.

Consider 53 compounds from ChEMBL document CHEMBL1955793, “Integrated structure-based activity prediction model of benzothiadiazines on various genotypes of HCV NS5b polymerase (1a, 1b and 4) and its application in the discovery of new derivatives” (Bioorg Med Chem, 2012).

Series [1] has as its system Hepatitis C virus. Put plainly: Inhibition of Hepatitis C virus genotype 1b NS5B polymerase. Set-up: species or system Hepatitis C virus subtype 1b.
The nature of series [2]: Inhibition of Hepatitis C virus genotype 1a NS5B polymerase. More on the design: species or system Hepatitis C virus subtype 1a.
Series [3] can be described thus: Cytotoxicity against human HuH5.2 cells after 1.5 hrs by MTS assay. It is filed as cell-based, Huh-5-2.
The test system of series [4] is Hepatitis C virus genotype 4. The series can be described thus: Inhibition of Hepatitis C virus genotype 4 NS5B polymerase at 10 uM.
Series [5] deals with Hepatitis C virus. The series can be described thus: Antiviral activity against Hepatitis C virus genotype 1b 1389 infected in human HuH5.2 cells assessed as inhibition of viral replication after 72 hrs by luciferase reporter gene assay. It is filed as functional, organism-based, Hepacivirus hominis. The settings on record: genotype 1b 1389, Huh-5-2, 72 h. Background: In a reporter assay the amount or activity of a reporter protein is the signal.

In series [6] the test system is Hepatitis C virus. Put plainly: Inhibition of Hepatitis C virus genotype 1b 1389 NS5B polymerase. Set-up: species or system Hepatitis C virus subtype 1b.

One may read the IC50 as the concentration at which inhibition is half-maximal. Low values mean greater potency, high ones weaker potency. On to `O=c1c(C2=NS(=O)(=O)c3ccccc3N2)c(O)c2ccccc2n1NC1CCC1`, for which the IC50 in the series with Hepatitis C virus [1] worked out at 108 nM; in series [2], 278 nM.
For `O=c1c(C2=NS(=O)(=O)c3ccccc3N2)c(O)c2ccccc2n1NCC1CC1`, in that order: 145 nM and 285 nM.
As a reminder, the CC50 is the concentration that lowers cell viability or growth by half. As usually defined, the inhibition is how much of the control response was suppressed. `C=CCn1cc(C2=NS(=O)(=O)c3ccccc3N2)c2ccccc21`: in series [3], the CC50 at 1.5 h was above 50000 nM. The inhibition entry in series [4] is “inactive”.
As for `CC(C)CCNn1c(=O)c(C2=NS(=O)(=O)c3ccccc3N2)c(O)c2ccccc21`, the half-maximal inhibitory concentration (IC50) is 134 nM in the series on Hepatitis C virus [1] and 629 nM in series [2].
In the case of `CC(C)n1cc(C2=NS(=O)(=O)c3cc(Br)cnc3N2)c2ccccc21`, in series [4], the inhibition entry was “inactive”.
Still for that read-out and setting: with `CCCn1cc(C2=NS(=O)(=O)c3cc(Br)ccc3N2)c2ccccc21` the entry was “inactive”.
For `O=c1c(C2=NS(=O)(=O)c3ccccc3N2)c(O)c2ccccc2n1NCc1nccs1`, the results for the half-inhibitory concentration (IC50) (in the series on Hepatitis C virus [1]; in series [2]) were 674 nM and 35800 nM, respectively.
The term EC50 denotes the midpoint of the concentration-response curve. In series [3], `C=CCn1cc(C2=NS(=O)(=O)c3cc(Br)cnc3N2)c2ccccc21` displayed a CC50 at 1.5 h above 50000 nM. In the series on Hepatitis C virus [5], the EC50 is 25400 nM. Moreover, the inhibition result in series [4] is “inactive”.
For `Cc1cccc(CNn2c(=O)c(C3=NS(=O)(=O)c4ccccc4N3)c(O)c3ccccc32)c1`, the IC50 with Hepatitis C virus [1] was found to be 212 nM; in series [2] it was 8210 nM.
For the compound `CC(C)CCn1cc(C2=NS(=O)(=O)c3ccccc3N2)c2ccccc21`, in series [3], the CC50 at 1.5 h is above 50000 nM. In the series on Hepatitis C virus [5], the 50% effective concentration (EC50) was determined as 19700 nM. In addition, the inhibition entry in series [4] was “inactive”.
For the compound `CC(C)n1cc(C2=NS(=O)(=O)c3ccccc3N2)c2ccccc21`, the inhibition entry in series [4] was “inactive”.
`O=c1c(C2=NS(=O)(=O)c3ccccc3N2)c(O)c2ccccc2n1NC1CCCC1`: the results for the IC50 (in the series on Hepatitis C virus [1]; in series [2]) were 150 nM and 747 nM, respectively.
On to `CCCCn1cc(C2=NS(=O)(=O)c3cc(NS(C)(=O)=O)ccc3N2)c2cc(Br)ccc21`, for which the CC50 at 1.5 h in series [3] came out at 49200 nM. Further, the EC50 in the series on Hepatitis C virus [5] was 7700 nM. Besides, in series [4], the inhibition was 60%.
As for `CCCCCNn1c(=O)c(C2=NS(=O)(=O)c3ccccc3N2)c(O)c2ccccc21`, the IC50 was 100 nM in the series on Hepatitis C virus [1] and 928 nM in series [2].
Taken in the same sequence, the figures for `CCCC(CCC)Nn1c(=O)c(C2=NS(=O)(=O)c3ccccc3N2)c(O)c2ccccc21` were 1800 nM and 2240 nM.
For `O=c1c(C2=NS(=O)(=O)c3ccccc3N2)c(O)c2ccccc2n1NCc1ccc(Br)cc1`, in that order: 4690 nM and 10400 nM.
As to `Fc1ccccc1-c1nc2ccn(Cc3ccc(-c4ccc(C(F)(F)F)cc4C(F)(F)F)nn3)cc-2n1` [TEGOBUVIR], the EC50 in the series on Hepatitis C virus [5] came to 0.7 nM.
Regarding `O=S1(=O)N=C(c2cn(Cc3ccccc3)c3ccc(Br)cc23)Nc2ccccc21`, the inhibition result in series [4] was “inactive”.
For `CCCC(Nn1c(=O)c(C2=NS(=O)(=O)c3ccccc3N2)c(O)c2ccccc21)C(C)C` (centres undefined), the results for the IC50 (in the series on Hepatitis C virus [1]; in series [2]) were 1130 nM and 6400 nM, respectively.
For `CC(C)CNn1c(=O)c(C2=NS(=O)(=O)c3ccccc3N2)c(O)c2ccccc21`, in that order: 101 nM and 941 nM.
Compound `CCCn1cc(C2=NS(=O)(=O)c3ccccc3N2)c2ccccc21` came in with a CC50 at 1.5 h in series [3] above 50000 nM. Besides, the EC50 with Hepatitis C virus [5] was found to be 4150 nM. The inhibition result in series [4] was “inactive”.
Regarding `O=c1c(C2=NS(=O)(=O)c3ccccc3N2)c(O)c2ccccc2n1NCc1cccs1`, the values for the IC50 (with Hepatitis C virus [1]; in series [2]) were 125 nM and 2330 nM, respectively.
For `O=c1c(C2=NS(=O)(=O)c3ccccc3N2)c(O)c2ccccc2n1NC1=CCOC=C1`, in that order: 439 nM and 4630 nM.
As to `CC(Nn1c(=O)c(C2=NS(=O)(=O)c3ccccc3N2)c(O)c2ccccc21)c1ccccc1` (centres undefined), the IC50 in the series on Hepatitis C virus [1] is 1490 nM; in series [2], 16500 nM.
For `O=c1c(C2=NS(=O)(=O)c3ccccc3N2)c(O)c2ccccc2n1NCc1cccc(Br)c1`, in that order: 75 nM and 1040 nM.
Regarding `Cc1ccccc1CNn1c(=O)c(C2=NS(=O)(=O)c3ccccc3N2)c(O)c2ccccc21`, the IC50 in the series on Hepatitis C virus [1] is 481 nM; in series [2] it was 6120 nM.
In the case of `CC(C)CCn1cc(C2=NS(=O)(=O)c3ccccc3N2)c2cc(Br)ccc21`, the CC50 at 1.5 h in series [3] was above 50000 nM. Besides, the EC50 in the series on Hepatitis C virus [5] was 18400 nM. In series [4], the inhibition result was “inactive”.
As for `O=c1c(C2=NS(=O)(=O)c3ccccc3N2)c(O)c2ccccc2n1NCc1ccoc1`, the half-maximal inhibitory concentration (IC50) with Hepatitis C virus [1] amounted to 133 nM; in series [2], 1550 nM.
Taken in the same sequence, the figures for `CCCCNn1c(=O)c(C2=NS(=O)(=O)c3ccccc3N2)c(O)c2ccccc21` were 161 nM and 951 nM.
Taken in the same sequence, the figures for `CC(C)Nn1c(=O)c(C2=NS(=O)(=O)c3ccccc3N2)c(O)c2ccccc21` were 640 nM and 6350 nM.
`CCCCn1cc(C2=NS(=O)(=O)c3cc(Br)cnc3N2)c2ccccc21` came in with a cytotoxic concentration (CC50) at 1.5 h in series [3] of 21900 nM. Moreover, the EC50 in the series on Hepatitis C virus [5] is 5890 nM. In addition, in series [4], the inhibition entry is “inactive”.
With `O=c1c(C2=NS(=O)(=O)c3ccccc3N2)c(O)c2ccccc2n1NCC1CCCCC1`, the values for the IC50 (with Hepatitis C virus [1]; in series [2]) were 150 nM and 2530 nM, respectively.
In series [4], `CC(C)CCn1cc(C2=NS(=O)(=O)c3cc(NS(C)(=O)=O)ccc3N2)c2ccccc21` gave an inhibition of 60%. In addition, in the series on Hepatitis C virus [6], half-maximal inhibition (IC50) was put at 1200 nM.
For `CC(C)CCn1cc(C2=NS(=O)(=O)c3cc(Br)cnc3N2)c2ccccc21`, the CC50 at 1.5 h in series [3] was above 50000 nM. Moreover, in the series with Hepatitis C virus [5], the EC50 turned out to be 7070 nM. In addition, the inhibition result in series [4] is “inactive”.
For `O=S1(=O)N=C(c2cn(Cc3ccccc3)c3ccccc23)Nc2ccccc21`, in that order: above 50000 nM, 1860 nM and “inactive”.
Consider `Cc1c(C2=NS(=O)(=O)c3ccccc3N2)c2ccccc2n1Cc1ccccc1`, for which the inhibition result in series [4] is “inactive”.
Take `CCCC(CC)Nn1c(=O)c(C2=NS(=O)(=O)c3ccccc3N2)c(O)c2ccccc21` (centres undefined): the IC50 came to 386 nM in the series with Hepatitis C virus [1] and 1890 nM in series [2].
Taken in the same sequence, the figures for `O=c1c(C2=NS(=O)(=O)c3ccccc3N2)c(O)c2ccccc2n1NCc1ccc(Cl)s1` were 1450 nM and 4780 nM.
For `O=c1c(C2=NS(=O)(=O)c3ccccc3N2)c(O)c2ccccc2n1NC1CCCCCC1`, in that order: 217 nM and 1040 nM.
In series [3], `CCCCn1cc(C2=NS(=O)(=O)c3ccccc3N2)c2cc(Br)ccc21` returned a CC50 at 1.5 h of 37200 nM. For the same compound, the EC50 in the series with Hepatitis C virus [5] came out at 9900 nM. For the same compound, the inhibition result in series [4] was “inactive”.
In series [4], `CS(=O)(=O)Nc1ccc2c(c1)S(=O)(=O)N=C(c1cn(Cc3ccccc3)c3ccccc13)N2` registered an inhibition of 60%.
On to `O=c1c(C2=NS(=O)(=O)c3ccccc3N2)c(O)c2ccccc2n1NC1CCCCC1`, for which the IC50 in the series on Hepatitis C virus [1] is 60 nM; in series [2], 356 nM.
For `CC(C)(C)CCNn1c(=O)c(C2=NS(=O)(=O)c3ccccc3N2)c(O)c2ccccc21`, in that order: 135 nM and 411 nM.
Taken in the same sequence, the figures for `Cc1ccsc1CNn1c(=O)c(C2=NS(=O)(=O)c3ccccc3N2)c(O)c2ccccc21` were 1190 nM and 15000 nM.
Take `CCCn1cc(C2=NS(=O)(=O)c3cc(I)ccc3N2)c2ccccc21`: the inhibition entry in series [4] is “inactive”.
As for `O=S1(=O)N=C(c2cn(Cc3ccccc3)c3ccccc23)Nc2ncc(Br)cc21`, the cytotoxic concentration (CC50) at 1.5 h in series [3] is above 50000 nM. The EC50 in the series with Hepatitis C virus [5] stood at 20200 nM. Further, the inhibition entry in series [4] is “inactive”.
`CCCn1cc(C2=NS(=O)(=O)c3cc(Br)cnc3N2)c2ccccc21` gave a CC50 at 1.5 h in series [3] of 16600 nM. In addition, in the series on Hepatitis C virus [5], the EC50 was found to be 2960 nM. Besides, the inhibition result in series [4] was “inactive”.
On to `O=c1c(C2=NS(=O)(=O)c3ccccc3N2)c(O)c2ccccc2n1NCc1ccccc1Br`, for which the values for the IC50 (with Hepatitis C virus [1]; in series [2]) were 469 nM and 6720 nM, respectively.
For the compound `CCc1cc(CC[C@]2(C3CCCC3)CC(O)=C(Cc3nc4nc(C)cc(C)n4n3)C(=O)O2)cc(CC)n1` [FILIBUVIR], the concentration for a half-maximal effect (EC50) in the series on Hepatitis C virus [5] is 41 nM.
Take `CCC(CC)Nn1c(=O)c(C2=NS(=O)(=O)c3ccccc3N2)c(O)c2ccccc21`: the results for the 50% inhibitory concentration (IC50) (in the series on Hepatitis C virus [1]; in series [2]) were 120 nM and 2460 nM, respectively.
For `O=c1c(C2=NS(=O)(=O)c3ccccc3N2)c(O)c2ccccc2n1NCc1ccccc1`, in that order: 129 nM and 5090 nM.
For `O=c1c(C2=NS(=O)(=O)c3ccccc3N2)c(O)c2ccccc2n1NCc1ccco1`, in that order: 305 nM and 3260 nM.
As for `CCCCn1cc(C2=NS(=O)(=O)c3ccccc3N2)c2ccccc21`, the CC50 at 1.5 h in series [3] is above 50000 nM. The concentration for a half-maximal effect (EC50) with Hepatitis C virus [5] amounted to 8010 nM. Moreover, the inhibition result in series [4] was “inactive”.
